# Results published in patent publication US20220273571A1, “COMPOSITIONS OF PROBIOTICS AND BIOMASS AND METHODS FOR PROMOTING HEALTH IN A SUBJECT” (Commonwealth Scientific and Industrial Research Organisation, priority 2019, published 2022).
# Key:
# [1] = pH of formulations in fermentation media before pH adjustment; format: physicochemical; details: 150 mg dried formulation in 10 mL fermentation media, before standardizing the starting pH at 6.8
# [2] = test system: Coriobacteriaceae (Collinsella aerofaciens); assay: In vitro colonic fermentation, 16S rRNA bacterial population analysis; format: cell-based; details: 24 h fermented samples versus Time 0 samples
# [3] = test system: Bacteroidaceae (Bacteroides); assay: as above; format: cell-based; details: 24 h fermented samples versus Time 0 samples
# [4] = test system: Porphyromonadaceae (Parabacteroides distasonis); assay: as above; format: cell-based; details: 24 h fermented samples versus Time 0 samples
# [5] = test system: Paraprevotellaceae (Paraprevotella); assay: as above; format: cell-based; details: 24 h fermented samples versus Time 0 samples
# [6] = test system: Bacillaceae (Bacillus coagulans); assay: as above; format: cell-based; details: 24 h fermented samples versus Time 0 samples
# [7] = test system: Lactobacillaceae (Lactobacillus reuteri); assay: as above; format: cell-based; details: 24 h fermented samples versus Time 0 samples
# [8] = test system: Clostridiaceae (Clostridium perfringens); format: cell-based; details: 24 h fermented samples versus Time 0 samples
# [9] = test system: Lachnospiraceae (Blautia); assay: In vitro colonic fermentation, 16S rRNA bacterial population analysis; format: cell-based; details: 24 h fermented samples versus Time 0 samples
# [10] = test system: Lachnospiraceae (Coprococcus); assay: as above; format: cell-based; details: 24 h fermented samples versus Time 0 samples
# [11] = test system: Lachnospiraceae (Dorea formicigenerans); assay: as above; format: cell-based; details: 24 h fermented samples versus Time 0 samples
# [12] = test system: Lachnospiraceae (Lachnospira); assay: as above; format: cell-based; details: 24 h fermented samples versus Time 0 samples
# [13] = test system: Lachnospiraceae (Roseburia faecis); assay: as above; format: cell-based; details: 24 h fermented samples versus Time 0 samples
# [14] = test system: Ruminococcaceae; assay: as above; format: cell-based; details: 24 h fermented samples versus Time 0 samples
# [15] = test system: Ruminococcaceae (Faecalibacterium prausnitzii); assay: as above; format: cell-based; details: 24 h fermented samples versus Time 0 samples
# [16] = test system: Ruminococcaceae (Oscillospira); assay: as above; format: cell-based; details: 24 h fermented samples versus Time 0 samples
# [17] = test system: Ruminococcaceae (Ruminococcus); assay: as above; format: cell-based; details: 24 h fermented samples versus Time 0 samples
# [18] = test system: Veillonellaceae (Dialister); assay: as above; format: cell-based; details: 24 h fermented samples versus Time 0 samples
# [19] = test system: Veillonellaceae (Veillonella dispar); assay: as above; format: cell-based; details: 24 h fermented samples versus Time 0 samples
# [20] = test system: Erysipelotrichaceae; assay: as above; format: cell-based; details: 24 h fermented samples versus Time 0 samples
# [21] = test system: Enterobacteriaceae (Trabulsiella); assay: as above; format: cell-based; details: 24 h fermented samples versus Time 0 samples
# [22] = test system: faecal slurries (gut microbiota); assay: In vitro colonic batch fermentation, pH value; details: batch fermentation with faecal slurry, 37° C., starting pH adjusted
# [23] = test system: faecal slurries (gut microbiota); assay: In vitro colonic fermentation, SCFA analysis by gas chromatography; details: 24 hrs fermentation, result in words (FIG. 2, FIG. 3)
compound,measurement,setting,value
"O=C(O[C@@H]1Cc2c(O)cc(O)cc2O[C@@H]1c1cc(O)c(O)c(O)c1)c1cc(O)c(O)c(O)c1 [EGCG, Epigallocatechin gallate]",pH,[1],7.16
same,"Log2 fold change of percentage abundance, Coriobacteriaceae (Collinsella aerofaciens)",[2],−0.81 Log2 fold change
same,"Log2 fold change of percentage abundance, Bacteroidaceae (Bacteroides)",[3],−0.13 Log2 fold change
same,"Log2 fold change of percentage abundance, Porphyromonadaceae (Parabacteroides distasonis)",[4],0.27 Log2 fold change
same,"Log2 fold change of percentage abundance, Paraprevotellaceae (Paraprevotella)",[5],0.46 Log2 fold change
same,"Log2 fold change of percentage abundance, Bacillaceae (Bacillus coagulans)",[6],−1.94 Log2 fold change
same,"Log2 fold change of percentage abundance, Lactobacillaceae (Lactobacillus reuteri)",[7],−0.37 Log2 fold change
same,"Log2 fold change of percentage abundance, Clostridiaceae (Clostridium perfringens)",[8],−0.79 Log2 fold change
same,"Log2 fold change of percentage abundance, Lachnospiraceae (Blautia)",[9],−1.39 Log2 fold change
same,"Log2 fold change of percentage abundance, Lachnospiraceae (Coprococcus)",[10],−0.22 Log2 fold change
same,"Log2 fold change of percentage abundance, Lachnospiraceae (Dorea formicigenerans)",[11],−1.47 Log2 fold change
same,"Log2 fold change of percentage abundance, Lachnospiraceae (Lachnospira)",[12],−0.28 Log2 fold change
same,"Log2 fold change of percentage abundance, Lachnospiraceae (Roseburia faecis)",[13],−0.11 Log2 fold change
same,"Log2 fold change of percentage abundance, Ruminococcaceae",[14],−0.57 Log2 fold change
same,"Log2 fold change of percentage abundance, Ruminococcaceae (Faecalibacterium prausnitzii)",[15],−0.81 Log2 fold change
same,"Log2 fold change of percentage abundance, Ruminococcaceae (Oscillospira)",[16],−0.31 Log2 fold change
same,"Log2 fold change of percentage abundance, Ruminococcaceae (Ruminococcus)",[17],−1.35 Log2 fold change
same,"Log2 fold change of percentage abundance, Veillonellaceae (Dialister)",[18],−0.32 Log2 fold change
same,"Log2 fold change of percentage abundance, Veillonellaceae (Veillonella dispar)",[19],−0.58 Log2 fold change
same,"Log2 fold change of percentage abundance, Erysipelotrichaceae",[20],−1.30 Log2 fold change
same,"Log2 fold change of percentage abundance, Enterobacteriaceae (Trabulsiella)",[21],0.58 Log2 fold change
same,pH at 24 hrs,[22],6.46 ± 0.05
same,total and individual SCFA production during fermentation,[23],significantly inhibited
